Legend:
[1] = test system: HEK293-EV cells (ENBT1-deficient); assay: Radiolabelled substrate uptake in empty vector HEK293-EV cells; type: cell-based, human; conditions: 2 seconds
Method: This is the minimum incubation time achievable with this oil-stop technique, and it was found in previous studies that these short incubation times were necessary to assess the kinetics of this transporter. The aqueous layer was removed via vacuum-powered aspirator, and the tube was washed with 1 mL of NMG buffer prior to removal of the oil layer. […] In transfected-HEK293 cell lines, total uptake was defined as uptake of radiolabeled substrate in cells overexpressing recombinant hENBT1 or mENBT1. […] This non-mediated component would include passive diffusion into the cells and radiolabelled substrate remaining extracellularly in the digested cell pellet after processing the samples. […] ENBT1-mediated uptake was calculated as total uptake minus the non-mediated uptake. Cell water volume (μL) was estimated by incubating cells with ^3H2O for 3 minutes, centrifuging the cells through the oil layer at ~10,000 g, assessing 100 μL of the supernatant for radioactive content, and then processing as described above. Total cellular water volume was determined from the ratio of the decays per minute of the cell pellet, to the decays per minute of the supernatant, allowing for inter-experimental normalization via calculation of picomoles of substrate accumulated per microliter of cell-associated water.

[2] = target: T1, endogenous ENBT1 expressed in L1210 cells (Mus musculus, UniProt A2AVZ9); assay: [3H]6-MP uptake in L1210 cells; type: cell-based, murine; conditions: 30 μM [3H]6-MP
T1 construct: MOLT-4 cells express the SLC43A3 transcript and L1210 cells express the slc43a3 transcript; host or cells: L1210
T1 sequence (A2AVZ9 1-502): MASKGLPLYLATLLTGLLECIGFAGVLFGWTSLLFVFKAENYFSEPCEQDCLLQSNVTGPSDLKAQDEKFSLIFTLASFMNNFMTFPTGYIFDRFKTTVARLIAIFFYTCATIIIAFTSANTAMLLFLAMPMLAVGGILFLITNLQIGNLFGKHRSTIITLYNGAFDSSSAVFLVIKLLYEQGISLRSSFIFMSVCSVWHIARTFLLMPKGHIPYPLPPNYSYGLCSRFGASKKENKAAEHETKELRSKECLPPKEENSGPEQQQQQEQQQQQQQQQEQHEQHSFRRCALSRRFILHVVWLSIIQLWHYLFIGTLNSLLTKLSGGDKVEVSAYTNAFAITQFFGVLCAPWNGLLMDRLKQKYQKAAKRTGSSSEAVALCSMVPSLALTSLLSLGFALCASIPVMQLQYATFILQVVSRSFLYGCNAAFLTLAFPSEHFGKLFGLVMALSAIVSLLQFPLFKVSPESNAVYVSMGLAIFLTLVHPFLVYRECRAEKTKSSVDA
Method: (§1) Harvested cells were suspended in nominally sodium-free N-methyl-D-glucamine (NMG) buffer (140 mM NMG, 5 mM KCl, 4.2 mM KHCO3, 0.36 mM K2HPO4, 0.44 mM KH2PO4, 0.5 mM MgCl2, 1.3 mM CaCl2, 10 mM HEPES, pH 7.4), to minimize potential contribution of sodium-dependent concentrative nucleoside transporter-mediated uptake. Additionally, cells were incubated for 15 minutes at room temperature with 10 μM dipyridamole (DY), an equilibrative nucleoside transporter (ENT) inhibitor, to block equilibrative nucleoside transporter–mediated uptake. The substrate uptake assay was initiated by adding 250 μL cell suspension to 250 μL [^3H] labeled substrate, layered over 21:4 silicone:mineral oil (200 μL) in 1.5 mL microcentrifuge tubes (conducted at room temperature). […] This is the minimum incubation time achievable with this oil-stop technique, and it was found in previous studies that these short incubation times were necessary to assess the kinetics of this transporter. […] The resulting cell pellet was digested in 250 μL 1 M NaOH overnight (~16 hours), with 220 μL aliquots of digested cells assessed for radioactive content using standard liquid scintillation counting techniques in a Beckman Coulter LS6500 scintillation system (Brea, CA).
(§2) In transfected-HEK293 cell lines, total uptake was defined as uptake of radiolabeled substrate in cells overexpressing recombinant hENBT1 or mENBT1. […] ENBT1-mediated uptake was calculated as total uptake minus the non-mediated uptake.
(§3) Cell water volume (μL) was estimated by incubating cells with ^3H2O for 3 minutes, centrifuging the cells through the oil layer at ~10,000 g, assessing 100 μL of the supernatant for radioactive content, and then processing as described above. Total cellular water volume was determined from the ratio of the decays per minute of the cell pellet, to the decays per minute of the supernatant, allowing for inter-experimental normalization via calculation of picomoles of substrate accumulated per microliter of cell-associated water.

[3] = target: T2, endogenous ENBT1 expressed in MOLT-4 cells (Homo sapiens, UniProt Q8NBI5); assay: [3H]6-MP uptake in MOLT-4 cells; type: cell-based; conditions: 30 μM [3H]6-MP
T2 construct: MOLT-4 cells express the SLC43A3 transcript and L1210 cells express the slc43a3 transcript; host or cells: MOLT-4
T2 sequence (Q8NBI5 1-491): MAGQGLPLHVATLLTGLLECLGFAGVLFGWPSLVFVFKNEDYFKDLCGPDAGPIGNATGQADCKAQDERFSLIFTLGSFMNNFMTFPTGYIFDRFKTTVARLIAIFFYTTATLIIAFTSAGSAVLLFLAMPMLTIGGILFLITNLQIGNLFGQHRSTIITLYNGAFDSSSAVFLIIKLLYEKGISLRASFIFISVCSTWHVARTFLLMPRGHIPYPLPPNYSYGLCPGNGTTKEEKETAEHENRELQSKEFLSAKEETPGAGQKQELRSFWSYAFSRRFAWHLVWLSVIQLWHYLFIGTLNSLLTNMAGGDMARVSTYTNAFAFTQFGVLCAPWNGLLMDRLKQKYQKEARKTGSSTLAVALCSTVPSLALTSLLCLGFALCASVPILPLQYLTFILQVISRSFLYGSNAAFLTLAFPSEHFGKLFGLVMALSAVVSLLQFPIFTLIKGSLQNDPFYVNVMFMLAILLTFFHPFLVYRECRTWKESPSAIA
Method: as §1, §2, §3

| effect on uptake of [3H]6-MP ([2]; 5 mM adenine) | effect on uptake of [3H]6-MP ([3]; 5 mM adenine) | k value of time-dependent uptake [2] [s⁻¹] | uptake plateau [2] | k value of time-dependent uptake [3] [s⁻¹] | uptake plateau [3] | Structure (SMILES) | uptake of radiolabelled substrate [1] |
| --- | --- | --- | --- | --- | --- | --- | --- |
| significantly inhibited | significantly inhibited | – | – | – | – | Nc1ncnc2[nH]cnc12 [adenine, Adenine] | minimal uptake |
| – | – | 0.22 ± 0.05 | roughly 30 pmol/μL | 0.34 ± 0.09 | roughly 30 pmol/μL | Sc1ncnc2nc[nH]c12 [6-MP, 6-Mercaptopurine] | minimal uptake |

From article PMC11449324, “Functional comparison of human and murine equilibrative nucleobase transporter 1” (PLOS ONE, 2024)
